No end group written: not given here.
What was measured:
HaloTag7D106A [1] = biological target: T1, HaloTag7D106A (Rhodococcus rhodochrous, UniProt P0A3G2, A155T/A167V/A172T/A224E/C128F/C176G/D106A/D78G/E160K/E257K/H272N/K175M/K195N/L47V/L88M/N227D/P291S/S2A/S58T/T264A/Y273L/Y87F); assay: Fluorescence intensity based binding assay of fluorogenic HaloTag ligands; conditions: 25 nM fluorogenic dye
T1 construct: made in house
Description: FIG. 3 Affinities of fluorogenic HaloTag™ ligands to HaloTag7D106A: The catalytically dead variant HaloTag7D106A was titrated against 3 different fluorogenic HaloTag™ ligands at 25 nM in a fluorescence intensity based binding assay (Halo-Siliconrhodamine, Halo-Janelia Fluor 646 and Halo-Janelia Fluor 635). Structures of the fluorogenic ligands are shown in each graph. Data were fitted to a one-site binding model and derived Kd values are shown in the graph. Due to the low affinity of the fluorogenic substrates, data points at […] were extrapolated based on fully labelled Halo Tag™ 7 (resembling complete binding) to improve fitting. Data points at 1 nM correspond to values without any protein added, but were placed at low concentrations to appear on the logarithmic scale. All experiments were performed in triplicates, error bars and annotated uncertainties represent standard deviations.
(§1) The inventors decided to perform the experiment with some representative fluorescent HaloTag™ substrates. An exchange of the aspartate106 residue in the active site by an alanine, removes the nucleophile responsible for the self labeling reaction and eliminates the catalytic activity of the protein. Catalytically dead mutants of HaloTag™ 7 (HaloTag™ 7D106A) and cpHaloΔ9mer (cpHalo_9merD106A) were generated to measure substrate affinities without displacement of the equilibrium by the enzymatic reaction.
(§2) Affinities for the different fluorescent substrates towards HaloTag™ 7D106A were determined in an FP binding assay (FIG. 2), while affinities of fluorogenic silcon-rhodamine derived substrates were measured by a fluorescence intensity based binding assay (FIG. 3), since binding of the fluorogenic ligands by HaloTag™ 7 engenders a strong increase of fluorescence. In both cases Halo Tag7D106A concentrations ranging from 0 μM to 100 μM were titrated against 25 nM of dye. […] The observed affinities are in agreement with labelling kinetics recorded with different substrates (data not shown). […]

HaloTag7D106A [2] = biological target: T1, HaloTag7D106A; assay: FP binding assay of fluorescent HaloTag ligands
Description: FIG. 2 Affinities of fluorescent Halo Tag™ ligands to HaloTag7D106A: The catalytically dead variant HaloTag7D106A was titrated against 5 different fluorescent HaloTag™ ligands at 25 nM in an FP binding assay (Halo-carbopyronine, Halo-TMR, Halo-TMR-azetidine, Halo-Oregon Green™, Halo Alexa Fluor™ 488). Structures of the fluorescent ligands are shown in each graph. Data points at 0.1 nM and 1 nM correspond to values without any protein added, but were placed at low concentrations to appear on the logarithmic scale. All experiments were performed in triplicates, error bars and annotated uncertainties represent standard deviations.
as §1
Affinities for the different fluorescent substrates towards HaloTag™ 7D106A were determined in an FP binding assay (FIG. 2), while affinities of fluorogenic silcon-rhodamine derived substrates were measured by a fluorescence intensity based binding assay (FIG. 3), since binding of the fluorogenic ligands by HaloTag™ 7 engenders a strong increase of fluorescence. In both cases Halo Tag7D106A concentrations ranging from 0 μM to 100 μM were titrated against 25 nM of dye. […] The observed affinities are in agreement with labelling kinetics recorded with different substrates (data not shown). In general, fluorogenic substrates have lower affinities to HaloTag7D106A than non-fluorogenic substrates, except for Halo-Alexa Fluor™ 488 that features an affinity in the same range. Additionally, within the Silicon rhodamine derivatives the presence of an azetidine or 3-fluoroazetidine moiety has an influence on the binding affinity which is more pronounced compared to the rhodamine structure. Affinities of fluorescent HaloTag™ ligands presenting the best affinities for HaloTag™ 7 were tested with cpHaloΔ9merD106A in an FP binding assay and results were compared to the measurements with HaloTag7D106A (FIG. 4, table 1).

cpHaloΔ9mer = biological target: T2, cpHaloΔ9mer (Rhodococcus rhodochrous, UniProt P0A3G2, C128F/D78G/L47V/L88M/S58T/Y87F); assay: Background labelling of cpHaloΔ9mer by in gel fluorescence; type: biochemical; conditions: cpHaloΔ9mer 1 μM, 2 μM fluorescent ligand, 37° C.
T2 construct: made in house
T2 sequence (P0A3G2 other isoform, or with tags, fused parts or gaps L47V/S58T/D78G/Y87F/L88M/C128F): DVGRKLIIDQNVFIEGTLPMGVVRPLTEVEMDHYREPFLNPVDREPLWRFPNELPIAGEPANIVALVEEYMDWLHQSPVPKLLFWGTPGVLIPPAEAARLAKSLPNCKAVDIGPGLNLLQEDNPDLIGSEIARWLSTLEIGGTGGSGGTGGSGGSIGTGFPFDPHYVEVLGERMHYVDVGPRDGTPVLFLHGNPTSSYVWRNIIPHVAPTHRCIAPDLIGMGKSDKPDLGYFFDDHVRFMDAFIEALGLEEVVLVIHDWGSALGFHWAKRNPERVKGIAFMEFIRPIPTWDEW
Description: FIG. 5 Background labeling of cpHaloΔ9mer: Background labeling of cpHaloΔ9mer (1 μM) in presence of 2 μM fluorescent ligands (at 37° C.) was determined via in gel fluorescence measurements. Samples were denatured and analysed via SDS-PAGE followed by in gel fluorescence scanning (top; gel is represented in false colors to highlight dim bands). Intensities were normalized to Halo Tag™ 7 labeled with the respective fluorophore (bottom).
A well performing protein complementation assay requires a low background. The inventors thus measured the extent of background labelling of cpHaloΔ9mer with different fluorophores (Halo-TMR, Halo-CPY and Halo-SiR). Therefore, cpHaloΔ9mer was incubated with an excess of the different fluorescent ligands.
The labelling efficiency at 37° C. and at different time points was determined via in gel fluorescence measurements (FIG. 5). […] These findings are in accordance to fluorescent ligand affinities (FIG. 4). Indeed, Halo-CPY has the highest affinity to cpHaloΔ9mer and already presents some affinity for the ligand at 2 μM engendering a labelling which still remains marginal considering the experimental setup.

cpHaloΔ9merD106A = cpHaloΔ9merD106A (Rhodococcus rhodochrous, UniProt P0A3G2, A167V/A172T/A224E/A292T/C128F/C176G/D106A/D78G/E160K/E257K, form not given/H272N/K175M/K195N/L47V/L88M/N227D/P291S/S58T/T264A/Y273L/Y87F); assay: FP binding assay of fluorescent HaloTag ligands; conditions: 25 nM dye
cpHaloΔ9merD106A, sequence (P0A3G2 other isoform, or with tags, fused parts or gaps with the stated changes, form open): as the sequence (P0A3G2 other isoform, or with tags, fused parts or gaps L47V/S58T/D78G/Y87F/L88M/C128F) above, with D258A counted along it
Description: FIG. 4 Comparison of HaloTag™ 7D106A and cpHaloΔ9merD106A fluorescent substrate binding: The catalytically dead variant […] (blue) was titrated against 3 different fluorescent Halo Tag™ ligands at 25 nM in an FP binding assay (Halo-TMR, Halo-TMR-azetidine and Halo-carbopyronine). Structures of the respective fluorescent ligands are shown above each graph. Data were fitted to a one-site binding model and derived Kd values are shown in the graphs. Data points at 0.01 nM and 0.1 nM correspond to values without any protein added, but were placed at low concentrations to appear on the logarithmic scale. Data were compared to HaloTag™ 7D106A binding of the same fluorophores (red). Differences in binding affinity are indicated by the relative fold change of Kd values. All experiments were performed in triplicate, error bars represent standard deviations.
as §1, §2

physchem = conditions: pH 7.3

T1 sequence (P0A3G2 other isoform, or with tags, fused parts or gaps with the stated changes): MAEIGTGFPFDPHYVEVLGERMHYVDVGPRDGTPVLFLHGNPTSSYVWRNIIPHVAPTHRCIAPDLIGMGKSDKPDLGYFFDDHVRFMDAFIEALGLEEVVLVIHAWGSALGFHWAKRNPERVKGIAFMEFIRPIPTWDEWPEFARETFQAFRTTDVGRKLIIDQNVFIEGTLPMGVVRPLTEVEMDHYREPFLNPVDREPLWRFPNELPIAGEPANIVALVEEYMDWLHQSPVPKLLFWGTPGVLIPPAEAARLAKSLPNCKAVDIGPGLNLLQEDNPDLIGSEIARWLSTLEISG

| Compound | Kd (HaloTag7D106A [1]) [µM] | Kd (HaloTag7D106A [2]) [µM] | background labelling of cpHaloΔ9mer (cpHaloΔ9mer) | Kd (cpHaloΔ9merD106A) [µM] | also measured |
| --- | --- | --- | --- | --- | --- |
| C[Si]1(C)C2=CC(=[N+]3CC(F)C3)C=CC2=C(c2cc(C(=O)NCCOCCOCCCCCCCl)ccc2C(=O)O)c2ccc(N3CC(F)C3)cc21 (stereo not drawn) [1-(10-(2-carboxy-5-((2-(2-((6-chlorohexyl)oxy)ethoxy)ethyl)carbamoyl)phenyl)-7-(3-fluoroazetidin-1-yl)-5,5-dimethyldibenzo[b,e]silin-3(5H)-ylidene)-3-fluoroazetidin-1-ium] | 172 |  |  |  |  |
| N=c1ccc2c(-c3cc(C(=O)NCCOCCOCCCCCCCl)ccc3C(=O)O)c3ccc(N)c(S(=O)(=O)O)c3oc-2c1S(=O)(=O)O [Halo-Alexa Fluor 488, 6-amino-9-(2-carboxy-5-((2-(2-((6-chlorohexyl)oxy)ethoxy)ethyl)carbamoyl)phenyl)-3-iminio-3H-xanthene-4,5-disulfonate] |  |  |  |  | Kd (HaloTag7D106A [2]; HaloTag7D106A, FP binding assay, 25 nM dye, one-site binding model, read-out: Kd): 94 µM |
| O=C(NCCOCCOCCCCCCCl)c1ccc(C(=O)O)c(-c2c3cc(F)c(=O)cc-3oc3cc(O)c(F)cc23)c1 [Halo-Oregon Green, 4-((2-(2-((6-chlorohexyl)oxy)ethoxy)ethyl)carbamoyl)-2-(2,7-difluoro-6-hydroxy-3-oxo-3H-xanthen-9-yl)benzoic acid] |  | 39.6 |  |  |  |
| CN(C)c1ccc2c(c1)C(C)(C)C1=CC(=[N+](C)C)C=CC1=C2c1cc(C(=O)NCCOCCOCCCCCCCl)ccc1C(=O)[O-] [Halo-carbopyronine, N-(10-(2-carboxy-5-((2-(2-((6-chlorohexyl)oxy)ethoxy)ethyl)carbamoyl)phenyl)-7-(dimethylamino)-9,9-dimethylanthracen-2(9H)-ylidene)-N-methylmethanaminium] |  | 0.622 | slightly stronger background labelling | 90.5 |  |
| CN(C)c1ccc2c(c1)[Si](C)(C)C1=CC(=[N+](C)C)C=CC1=C2c1cc(C(=O)NCCOCCOCCCCCCCl)ccc1C(=O)O [Halo-silicon-rhodamine, N-(10-(2-carboxy-5-((2-(2-((6-chlorohexyl)oxy)ethoxy)ethyl)carbamoyl)phenyl)-7-(dimethylamino)-5,5-dimethyldibenzo[b,e]silin-3(5H)-ylidene)-N-methylmethanaminium] | 22.7 |  | Very low background labelling |  |  |
| C[Si]1(C)C2=CC(=[N+]3CCC3)C=CC2=C(c2cc(C(=O)NCCOCCOCCCCCCCl)ccc2C(=O)O)c2ccc(N3CCC3)cc21 [Halo-silicon-rhodamine-azetidine (JF646), 1-(7-(azetidin-1-yl)-10-(2-carboxy-5-((2-(2-((6-chlorohexyl)oxy)ethoxy)ethyl)-carbamoyl)phenyl)-5,5-dimethyldibenzo[b,e]silin-3(5H)-ylidene)azetidin-1-ium] | 54.6 |  |  |  |  |
| CN(C)c1ccc2c(-c3cc(C(=O)NCCOCCOCCCCCCCl)ccc3C(=O)[O-])c3ccc(=[N+](C)C)cc-3oc2c1 [Halo-tetramethylrhodamine, N-(9-(2-carboxy-5-((2-(2-((6-chlorohexyl)oxy)ethoxy)ethyl)carbamoyl)phenyl)-6-(dimethylamino)-3H-xanthen-3-ylidene)-N-methylmethanaminium] |  | 6.68 | Very low background labelling | 115 |  |
| O=C(NCCOCCOCCCCCCCl)c1ccc(C(=O)[O-])c(-c2c3ccc(=[N+]4CCC4)cc-3oc3cc(N4CCC4)ccc23)c1 [Halo-tetramethylrhodamine-azetidine, 1-(6-(azetidin-1-yl)-9-(2-carboxy-5-((2-(2-((6-chlorohexyl)oxy)ethoxy)ethyl)carbamoyl)-phenyl)-3H-xanthen-3-ylidene)azetidin-1-ium] |  | 4.4 |  | 227 |  |
| ARETFQAFR [9mer peptide] |  |  |  |  | solubility (physchem): ~30 mM |
